Measurements: patent US8410302B2, “Methoxyimino compounds and fungicide composition comprising same” (Kyung Nong Corporation, priority 2007, dated 2013)
Where two headings read alike, the source gives them in different places.

Legend:
[1] = test system: Pyricularia oryzae Carvara KA301; test: whole plant or invertebrate; type: in vivo; settings: for RCB control value (C.V.): rice blast
Botrytis cinerae = test: Fungicidal activity against cucumber gray mold rot (CGM) disease, control value; type: in vivo
Phytophthora infestans = test: whole plant or invertebrate; type: in vivo; settings: for TLB control value (C.V.): tomato late blight
Erysiphae graminis = test: Fungicidal activity against barley powdery mildew (BPM) disease, control value; type: in vivo
Puccinia recondita = test: Fungicidal activity against wheat leaf rust (WLR) disease, control value; type: in vivo
Rhizoctonia solani AG-1 = test: Fungicidal activity against rice sheath blight (RSB) disease, control value; settings: for RSB control value (C.V.): rice sheath blight
[2] = Pyricularia oryzae, read-out: RCB control value (C.V.)
[3] = Phytophthora infestans, in Solanum lycopersicum, read-out: TLB control value (C.V.)
[4] = Rhizoctonia solani, AG1, in Oryza sativa, read-out: RSB control value (C.V.)
[5] = Botrytis, 100 ppm, cucumber gray mold rot, read-out: CGM control value (C.V.)
[6] = Hordeum vulgare, 168 h, 100 ppm, barley powdery mildew, read-out: BPM control value (C.V.)
[7] = 50 ppm, wheat leaf rust, read-out: WLR control value (C.V.)
[8] = 100 ppm, wheat leaf rust, read-out: WLR control value (C.V.)

## CNC(=O)/C(=N/OC)c1ccccc1CON=C(C)c1cccc(C=C(Cl)Br)c1 [Example 36, (E)-2-[[[[[2-[3-(2-bromo-2-chlorovinyl)phenyl](1-methyl)methylidene]amino]oxy]methyl]phenyl]-2-methoxyimino-N-methylacetamide]
[1]; 2 ppm
  RCB control value (C.V.): 100%
[1]; 10 ppm
  RCB control value (C.V.): 100%
[1]; 50 ppm
  RCB control value (C.V.): 100%
[1]; 100 ppm
  RCB control value (C.V.): 100%
Botrytis cinerae; 100 ppm, cucumber gray mold rot
  CGM control value (C.V.): 65%
Phytophthora infestans; 2 ppm
  TLB control value (C.V.): 30%
Phytophthora infestans; 10 ppm
  TLB control value (C.V.): 80%
Phytophthora infestans; 50 ppm
  TLB control value (C.V.): 100%
Phytophthora infestans; 100 ppm
  TLB control value (C.V.): 100%
Erysiphae graminis; 2 ppm, barley powdery mildew
  BPM control value (C.V.): 100%
Erysiphae graminis; 10 ppm, barley powdery mildew
  BPM control value (C.V.): 100%
Erysiphae graminis; 50 ppm, barley powdery mildew
  BPM control value (C.V.): 100%
Erysiphae graminis; 100 ppm, barley powdery mildew
  BPM control value (C.V.): 100%
Puccinia recondita; 2 ppm, wheat leaf rust
  WLR control value (C.V.): 100%
Puccinia recondita; 10 ppm, wheat leaf rust
  WLR control value (C.V.): 100%
Puccinia recondita; 50 ppm, wheat leaf rust
  WLR control value (C.V.): 100%
Puccinia recondita; 100 ppm, wheat leaf rust
  WLR control value (C.V.): 100%
Rhizoctonia solani AG-1; 2 ppm
  RSB control value (C.V.): 67%
Rhizoctonia solani AG-1; 10 ppm
  RSB control value (C.V.): 90%
Rhizoctonia solani AG-1; 50 ppm
  RSB control value (C.V.): 98%
Rhizoctonia solani AG-1; 100 ppm
  RSB control value (C.V.): 100%

## CO/N=C(/C(=O)OC)c1ccccc1COc1ccccc1C [Kresoxim-methyl, reference compound]
[1]; [2]
  pest or weed control at 0.4 ppm: 30%
  pest or weed control at 2 ppm: 60%
  pest or weed control at 10 ppm: 95%
  pest or weed control at 50 ppm: 100%
Botrytis cinerae; Botrytis, 50 ppm, read-out: CGM control value (C.V.)
  pest or weed control at 50 ppm: 30%
Phytophthora infestans; [3]
  pest or weed control at 0.4 ppm: 30%
  pest or weed control at 2 ppm: 80%
  pest or weed control at 10 ppm: 95%
  pest or weed control at 50 ppm: 100%
Erysiphae graminis; 168 h, 0.4 ppm, read-out: BPM control value (C.V.)
  pest or weed control at 0.4 ppm: 95%
Erysiphae graminis; 168 h, 2 ppm, read-out: BPM control value (C.V.)
  pest or weed control at 2 ppm: 100%
Erysiphae graminis; 168 h, 10 ppm, read-out: BPM control value (C.V.)
  pest or weed control at 10 ppm: 100%
Erysiphae graminis; 168 h, 50 ppm, read-out: BPM control value (C.V.)
  pest or weed control at 50 ppm: 100%
Puccinia recondita; Puccinia recondita, 0.4 ppm, read-out: WLR control value (C.V.)
  pest or weed control at 0.4 ppm: 85%
Puccinia recondita; Puccinia recondita, 2 ppm, read-out: WLR control value (C.V.)
  pest or weed control at 2 ppm: 95%
Puccinia recondita; Puccinia recondita, 10 ppm, read-out: WLR control value (C.V.)
  pest or weed control at 10 ppm: 100%
Puccinia recondita; Puccinia recondita, 50 ppm, read-out: WLR control value (C.V.)
  pest or weed control at 50 ppm: 100%
Rhizoctonia solani AG-1; [4]
  pest or weed control at 0.4 ppm: 67%
  pest or weed control at 2 ppm: 90%
  pest or weed control at 10 ppm: 98%
  pest or weed control at 50 ppm: 100%

## CO/N=C(/C(=O)OC)c1ccccc1COc1ccc(C=C(F)Cl)cc1 [Example 13, methyl-(2E)-2-(2-((4-(2-chloro-2-fluorovinyl)phenoxy)methyl)phenyl)-2-methoxyiminoacetate]
[1]; [2]
  pest or weed control at 50 ppm: 70%
  pest or weed control at 100 ppm: 95%
Botrytis cinerae; [5]
  pest or weed control at 100 ppm: 0%
Phytophthora infestans; [3]
  pest or weed control at 100 ppm: 60%
Erysiphae graminis; [6]
  pest or weed control at 100 ppm: 75%
Puccinia recondita; [7]
  pest or weed control at 50 ppm: 40%
Puccinia recondita; [8]
  pest or weed control at 100 ppm: 90%
Rhizoctonia solani AG-1; [4]
  pest or weed control at 100 ppm: 67%

## CNC(=O)/C(=N/OC)c1ccccc1COc1ccc(C=C(Cl)Cl)cc1 [Example 4, (E)-2-(2-((4-(2,2-dichlorovinyl)phenoxy)methyl)phenyl)-2-methoxyimino-N-methylacetamide]
[1]; [2]
  pest or weed control at 2 ppm: 100%
  pest or weed control at 10 ppm: 100%
  pest or weed control at 50 ppm: 100%
  pest or weed control at 100 ppm: 100%
Botrytis cinerae; [5]
  pest or weed control at 100 ppm: 75%
Phytophthora infestans; [3]
  pest or weed control at 2 ppm: 100%
  pest or weed control at 10 ppm: 100%
  pest or weed control at 50 ppm: 100%
  pest or weed control at 100 ppm: 100%
Erysiphae graminis; Hordeum vulgare, 168 h, 2 ppm, barley powdery mildew, read-out: BPM control value (C.V.)
  pest or weed control at 2 ppm: 100%
Erysiphae graminis; Hordeum vulgare, 168 h, 10 ppm, barley powdery mildew, read-out: BPM control value (C.V.)
  pest or weed control at 10 ppm: 100%
Erysiphae graminis; Hordeum vulgare, 168 h, 50 ppm, barley powdery mildew, read-out: BPM control value (C.V.)
  pest or weed control at 50 ppm: 100%
Erysiphae graminis; [6]
  pest or weed control at 100 ppm: 100%
Puccinia recondita; 2 ppm, wheat leaf rust, read-out: WLR control value (C.V.)
  pest or weed control at 2 ppm: 100%
Puccinia recondita; 10 ppm, wheat leaf rust, read-out: WLR control value (C.V.)
  pest or weed control at 10 ppm: 100%
Puccinia recondita; [7]
  pest or weed control at 50 ppm: 100%
Puccinia recondita; [8]
  pest or weed control at 100 ppm: 100%
Rhizoctonia solani AG-1; [4]
  pest or weed control at 2 ppm: 90%
  pest or weed control at 10 ppm: 98%
  pest or weed control at 50 ppm: 100%
  pest or weed control at 100 ppm: 100%
